The text below walks through data of paper PMC4008379, “Bioenergetics and Gene Silencing Approaches for Unraveling Nucleotide Recognition by the Human EIF2C2/Ago2 PAZ Domain” (PLoS ONE, 2014).

Where two headings read alike, the source gives them in different places.

What all share (type): binding
The target in test [1] is T1, EIF2C2/Ago2 PAZ domain (Ago2PAZ) (Homo sapiens, UniProt Q9UKV8).
T1 construct: PAZ domain, residues 226-379, hexahistidine tag (pQE30, BamHI/HindIII), tag removal not mentioned; expressed in E. coli; Talon and Sephacryl S200HR
Nature of the test: ITC displacement (UMP titrated into AMP-saturated protein). The settings on record: 25 mM potassium phosphate pH 7; 12°C; competition with UMP; unreliable (estimated, direct titration ND). An excerpt:
ITC displacement (UMP titrated into AMP-saturated protein) on EIF2C2/Ago2 PAZ domain (Ago2PAZ)

The target in test [2] is T1, EIF2C2/Ago2 PAZ domain (Ago2PAZ). Nature of the test: isothermal titration calorimetry.
For test [3] the target is unchanged. Description: ITC displacement (UMP titrated into dAMP-saturated protein). The settings on record: 25 mM potassium phosphate pH 7; 12°C; competition with UMP; unreliable (estimated, direct titration ND). An excerpt: ITC displacement (UMP titrated into dAMP-saturated protein) on EIF2C2/Ago2 PAZ domain (Ago2PAZ)
Test [4] shares this target. Description: ITC displacement (UMP titrated into dCMP-saturated protein). The settings on record: 25 mM potassium phosphate pH 7; 12°C; competition with UMP; unreliable (estimated, direct titration ND). From the text: ITC displacement (UMP titrated into dCMP-saturated protein) on EIF2C2/Ago2 PAZ domain (Ago2PAZ)

T1 sequence (Q9UKV8 227-379): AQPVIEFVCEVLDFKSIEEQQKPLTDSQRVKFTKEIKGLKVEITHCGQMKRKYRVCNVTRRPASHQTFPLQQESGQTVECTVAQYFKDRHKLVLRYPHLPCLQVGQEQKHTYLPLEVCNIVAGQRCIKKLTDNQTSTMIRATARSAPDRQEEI

For the compound `Nc1ncnc2c1ncn2[C@@H]1O[C@H](COP(=O)(O)O)[C@@H](O)[C@H]1O` [AMP], in test [1], the “Estimated KB / M^-1” value is 143 M⁻¹.

On to `Nc1ccn([C@@H]2O[C@H](COP(=O)(O)O)[C@@H](O)[C@H]2O)c(=O)n1` [CMP], for which the Kd in test [2] (read-out: Kd /) was 40 µM.

As for `Nc1nc2c(ncn2[C@@H]2O[C@H](COP(=O)(O)O)[C@@H](O)[C@H]2O)c(=O)[nH]1` [GMP], the Kd in test [2] (read-out: Kd /) amounted to 22 µM.

For `Cc1cn([C@H]2C[C@H](O)[C@@H](COP(=O)(O)O)O2)c(=O)[nH]c1=O` [TMP], the Kd in test [2] (read-out: Kd /) is 232 µM.

On to `O=c1ccn([C@@H]2O[C@H](COP(=O)(O)O)[C@@H](O)[C@H]2O)c(=O)[nH]1` [UMP], for which the Kd in test [2] (25 mM potassium phosphate pH 7, one-set-of-sites model, fitted n 2.2, read-out: Kd /) worked out at 15 µM.

`Cc1cn([C@@H]2O[C@H](COP(=O)(O)O)[C@@H](O)[C@H]2O)c(=O)[nH]c1=O` [compound 2, 5-Methyluridine-5′-O-monophosphate]: the Kd in test [2] (read-out: Ka (converted)) was 58.8 µM.

For the compound `Nc1ncnc2c1ncn2[C@H]1C[C@H](O)[C@@H](COP(=O)(O)O)O1` [dAMP], the “Estimated KB / M^-1” value in test [3] is 72 M⁻¹.

Consider `Nc1ccn([C@H]2C[C@H](O)[C@@H](COP(=O)(O)O)O2)c(=O)n1` [dCMP], for which the “Estimated KB / M^-1” value in test [4] was 155 M⁻¹.

In the case of `Nc1nc2c(ncn2[C@H]2C[C@H](O)[C@@H](COP(=O)(O)O)O2)c(=O)[nH]1` [dGMP], the Kd in test [2] (read-out: Kd /) was 40 µM.
